Experimental findings from patent US10053431B2, “Tetrahydro-benzodiazepinones” (priority 2013, dated 2018) are described below.

In test [1] the target is BIR2 domain of XIAP (Homo sapiens (Human), UniProt P98170, C202A/C213G). The experiment in a line: TR-FRET assay for BIR2 (inhibition of binding of XIAP BIR2 domain to SMAC-derived Peptide A). The following applies: 6x His-tagged BIR2 domain (aa 124-240 of XIAP) 10 nM, Peptide A 20 nM, TR-FRET; read-out: IC50 BIR2.
The target of test [2] is BIR3 domain of XIAP (Homo sapiens (Human), UniProt P98170). The experiment in a line: TR-FRET assay for BIR3 (inhibition of binding of XIAP BIR3 domain to SMAC-derived Peptide A). The settings on record: 6x His-tagged BIR3 domain (aa 241-356 of XIAP) 10 nM, Peptide A 20 nM, TR-FRET. (Time-resolved FRET reads energy transfer from a long-lived donor to a nearby acceptor.)

Structures can show the parent of a compound that is named as a salt. Bounds are passed on as bounds.

BIR3 domain of XIAP, sequence (P98170 241-356 with tags or gaps limits assumed): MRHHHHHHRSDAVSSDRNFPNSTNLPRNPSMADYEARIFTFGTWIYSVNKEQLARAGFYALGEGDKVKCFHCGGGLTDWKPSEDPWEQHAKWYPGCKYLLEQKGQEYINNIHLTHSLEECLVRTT
BIR2 domain of XIAP, sequence (P98170 124-240 with tags or gaps C202A/C213G limits assumed): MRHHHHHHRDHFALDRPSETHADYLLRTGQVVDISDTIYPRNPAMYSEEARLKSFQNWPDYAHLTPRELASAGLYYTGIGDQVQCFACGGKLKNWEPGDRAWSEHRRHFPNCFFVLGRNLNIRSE

As a reminder, the IC50 is the concentration at which inhibition is half-maximal. Regarding `CN[C@@H](C)C(=O)N[C@H]1CN(C(C)=O)c2cc(C(F)(F)F)ccc2N(Cc2c(C3CC3)ccc3c(C#N)cccc23)C1=O` [Example 189, (S)-N-((S)-5-acetyl-1-((5-cyano-2-cyclopropylnaphthalen-1-yl)methyl)-2-oxo-7-(trifluoromethyl)-2,3,4,5-tetrahydro-1H-benzo[b][1,4]diazepin-3-yl)-2-(methylamino)propanamide], the figures for the IC50 in test [1] and in test [2] were 30.4 nM and 29300 nM, respectively.
As for `CN[C@@H](C)C(=O)N[C@@H]1C(=O)N(CC(=O)Nc2c(F)cccc2F)c2ccccc2N(C(C)=O)[C@H]1C` [Example 190, (S)-N-((2S,3S)-1-acetyl-5-(2-(2,6-difluorophenylamino)-2-oxoethyl)-2-methyl-4-oxo-2,3,4,5-tetrahydro-1H-benzo[b][1,4]diazepin-3-yl)-2-(methylamino)propanamide hydrochloride], the IC50 was 85.3 nM in test [1] and more than 54800 nM in test [2].
Taken in the same sequence, the figures for `CN[C@@H](C)C(=O)N[C@@H]1C(=O)N(CC(=O)Nc2ccccc2)c2ccccc2N(C(C)=O)[C@H]1C` [Example 191, (S)-N-((2S,3S)-1-acetyl-2-methyl-4-oxo-5-(2-oxo-2-(phenylamino)ethyl)-2,3,4,5-tetrahydro-1H-benzo[b][1,4]diazepin-3-yl)-2-(methylamino)propanamide hydrochloride] were 434 nM and more than 54800 nM.
